Inhibition and IC50 data for 15 molecules are collected here from ChEMBL document CHEMBL1146987, “Ketopiperazine-based renin inhibitors: optimization of the "C" ring” (Bioorg Med Chem Lett, 2006).

The target in series [1] is CYP3A4 (Homo sapiens, UniProt P08684). Put plainly: Inhibition of CYP3A4 at 3 uM. The format is ADME.
For series [2], the target named is Cytochrome P450 3A4 (Homo sapiens, UniProt P08684). Description: Inhibition of CYP3A4 using BFC fluorogenic substrate. The class given is ADME.
Series [3] has as its target T1, Renin (Homo sapiens, UniProt P00797).
T1 sequence (P00797 whole entry): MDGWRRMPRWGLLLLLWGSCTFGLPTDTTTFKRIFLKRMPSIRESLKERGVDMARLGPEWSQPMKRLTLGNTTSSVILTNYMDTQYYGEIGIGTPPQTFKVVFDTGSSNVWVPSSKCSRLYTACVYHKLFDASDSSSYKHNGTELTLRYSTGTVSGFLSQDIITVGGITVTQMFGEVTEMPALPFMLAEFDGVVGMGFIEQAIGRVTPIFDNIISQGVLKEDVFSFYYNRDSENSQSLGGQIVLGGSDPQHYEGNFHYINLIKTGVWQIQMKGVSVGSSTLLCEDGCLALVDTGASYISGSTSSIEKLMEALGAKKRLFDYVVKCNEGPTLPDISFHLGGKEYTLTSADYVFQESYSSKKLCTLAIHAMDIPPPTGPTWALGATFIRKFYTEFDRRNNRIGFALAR
Description: Inhibition of renin.

The inhibition is the change of the read-out against control, counted positive when it falls. Read a low inhibition as little suppression. Usually pIC50 stands for the negative decadic logarithm of the IC50, by convention in mol/L. Low readings indicate a high IC50, high ones a low IC50.

Each structure is given as a SMILES string. pIC50: −log10 of the molar value.

CYP3A4, sequence (P08684 whole entry): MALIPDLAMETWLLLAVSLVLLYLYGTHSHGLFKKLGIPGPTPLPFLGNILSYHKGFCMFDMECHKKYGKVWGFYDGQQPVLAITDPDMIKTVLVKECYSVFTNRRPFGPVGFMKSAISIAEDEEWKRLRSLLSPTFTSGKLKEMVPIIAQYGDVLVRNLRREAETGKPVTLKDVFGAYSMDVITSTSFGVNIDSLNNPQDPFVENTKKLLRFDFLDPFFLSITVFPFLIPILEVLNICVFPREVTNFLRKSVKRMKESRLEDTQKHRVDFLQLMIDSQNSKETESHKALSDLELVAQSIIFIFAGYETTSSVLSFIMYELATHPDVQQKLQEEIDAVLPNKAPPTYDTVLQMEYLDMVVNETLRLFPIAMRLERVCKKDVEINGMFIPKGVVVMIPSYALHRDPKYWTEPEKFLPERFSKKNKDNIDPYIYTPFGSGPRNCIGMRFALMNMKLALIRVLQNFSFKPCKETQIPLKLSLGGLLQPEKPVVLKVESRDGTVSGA
Cytochrome P450 3A4, sequence (P08684 whole entry): as above

`COCCCN1C(=O)CCc2ccc(OC[C@H]3CNCC(=O)N3c3ccc(OCCCOCc4ccccc4OC)cc3)cc21` gave an inhibition at 3 µM in series [1] of 92%. The same molecule gave a negative-log IC50 (pIC50) in series [2] of 7.46.

`CCC(=O)OCCN1CCCc2ccc(OC[C@H]3CNCC(=O)N3c3ccc(OCCCOCc4ccccc4OC)cc3)cc21` had an inhibition at 3 µM in series [1] of 96%.

For the molecule `COCCCN1C(=O)COc2ccc(SC[C@H]3CNCC(=O)N3c3ccc(OCCCOCc4ccccc4OC)cc3)cc21`, the inhibition at 3 µM in series [1] came out at 95%. The negative-log IC50 (pIC50) in series [2] is 7.85.

For the molecule `COc1ccccc1COCCCOc1ccc(N2C(=O)CNC[C@@H]2COc2ccc3c(c2)N(CCOC(=O)C(C)C)CCC3)cc1`, 3 µM produced 92% inhibition in series [1]. Besides, the pIC50 was 7.27 in series [2] and 6.26 in series [3].

Regarding `COc1ccccc1COCCCOc1ccc(N2C(=O)CNC[C@@H]2COc2ccc3c(c2)N(CCCO)CCC3)cc1`, in series [1], testing at 3 µM gave an inhibition of 71%. For the same molecule, in series [2], the pIC50 is 6.34.

On to `COc1ccccc1COCCCOc1ccc(N2C(=O)CNC[C@@H]2COc2ccc3c(c2)N(CCN(C)C(C)=O)CCC3)cc1`, for which the pIC50 in series [2] was 7.74; in series [3], 8.40.

In series [1], `COCCCN1CCCc2ccc(OC[C@H]3CNCC(=O)N3c3ccc(OCCCOCc4ccccc4OC)cc3)cc21` displayed an inhibition at 3 µM of 96%. The negative-log IC50 (pIC50) in series [2] was 7.92.

For the molecule `COc1ccccc1COCCCOc1ccc(N2C(=O)CNC[C@@H]2CSc2ccc3c(c2)N(CC(=O)O)C(=O)CO3)cc1`, the figures for the pIC50 in series [2] and in series [3] were 4.82 and 5.92, respectively.

For the molecule `COc1ccccc1COCCCOc1ccc(N2C(=O)CNC[C@@H]2COc2ccc3c(c2)N(CCN2CCCC2=O)CCC3)cc1`, the negative-log IC50 (pIC50) in series [2] was 7.38; in series [3] it was 6.22.

For `COc1ccccc1COCCCOc1ccc(N2C(=O)CNC[C@@H]2COc2ccc3c(c2)N(CC(=O)O)C(=O)CO3)cc1`, the pIC50 in series [2] was 4.60; in series [3] it was 6.44.

As to `COc1ccccc1COCCCOc1ccc(N2C(=O)CNC[C@@H]2COc2ccc3c(c2)N(CCN2CCOC2=O)CCC3)cc1`, the figures for the pIC50 in series [2] and in series [3] were 5.42 and less than 6.00, respectively.

With `COc1ccccc1COCCCOc1ccc(N2C(=O)CNC[C@@H]2COc2ccc3c(c2)N(CCOC(C)=O)CCC3)cc1`, at 3 µM the inhibition in series [1] was 87%.

As to `COCCCN1C(=O)COc2ccc(OC[C@H]3CNCC(=O)N3c3ccc(OCCCOCc4ccccc4OC)cc3)cc21`, the inhibition at 3 µM in series [1] was determined as 95%. This molecule showed a negative-log IC50 (pIC50) in series [3] of 9.17.

On to `COc1ccccc1COCCCOc1ccc(N2C(=O)CNC[C@@H]2COc2ccc3c(c2)N(CCC(=O)O)CCC3)cc1`, for which the pIC50 in series [2] is 5.00; in series [3] it was 6.35.

Turning to `COc1ccccc1COCCCOc1ccc(N2C(=O)CNC[C@@H]2COc2ccc3c(c2)N(CCNC(C)=O)CCC3)cc1`, the inhibition at 3 µM in series [1] was found to be 92%. For the same molecule, the negative logarithm of the IC50 (pIC50) in series [2] is 7.09; in series [3], 9.54.
